# Reference: patent US11319303B2 (WIGEN BIOMEDICINE TECHNOLOGY (SHANGHAI) CO., LTD., priority 2017, dated 2022)
# Where a name gives a salt, the structure may show the parent alone.
# Target: LC3B (Homo sapiens, UniProt Q9GZQ8)
# Assay: Fluorescence Polarization (FP) Assay: displacement of FITC-labeled peptide from GST-LC3B
# Assay type: binding
# Settings: not given
# Protocol: The compounds of the present invention for regulating the autophagy-related protein LC3B were tested by Fluorescence Polarization (FP) Assay.
# Fluorescence Polarization (FP) Assay Test
row,SMILES,IC50 [µM]
1,"O=C1CC(c2ccccc2)CC(=O)C1=CNC1CCSC1=O (stereo not shown) [Compound 137, 2-(((2-oxotetrahydro-thiophen-3-yl)amino)methylene)-5-phenylcyclohexane-1,3-dione]",3 to 15

# Same assay, conditions: Fluorescence Polarization assay; GST-LC3B 180 nM, FITC-labeled peptide 18 nM, 25° C.; read-out: IC50
row,SMILES,IC50 [µM]
1,"O=C1CCC(c2ccc(F)cc2)C(=O)C1=CNCCN1CCN(CCO)CC1 (stereo not shown) [Compound 100, 4-(4-fluorophenyl)-2-(((2-(4-(2-hydroxyethyl)piperazin-1-yl)ethyl)amino)methylene)cyclohexane-1,3-dione]",15 to 100
2,"O=C1CN(Cc2ccccc2)CC(=O)C1=CNCCN1CCN(CCO)CC1 [Compound 103, 1-benzyl-4-(((2-(4-(2-hydroxyethyl)piperazin-1-yl)ethyl)amino)methylene)-piperidine-3,5-dione]",15 to 100
3,"CC(NCCN1CCN(CCO)CC1)=C1C(=O)CC(c2ccccc2)CC1=O (stereo not shown) [Compound 108, 2-(1-((2-(4-(2-hydroxyethyl)piperazin-1-yl)ethyl)amino)ethylidene)-5-phenylcyclohexane-1,3-dione]",100 to 1000
4,"CC(=O)OCC(=O)C1=C(O)CC(c2ccccc2)CC1=O (stereo not shown) [Compound 111, 2-(5-hydroxy-3-oxo-1,2,3,6-tetrahydro-[1,1′ -biphenyl]-4-yl)-2-oxoethyl acetate]",100 to 1000
5,"O=C1CC2c3ccccc3CCC2C(=O)/C1=C\NCCN1CCN(CCO)CC1 (stereo not shown) [Compound 113, 2-(((2-(4-(2-hydroxyethyl)piperazin-1-yl)ethyl)amino)methylene)-4a,9,10,10a-tetrahydrophenanthrene-1,3(2H,4H)-dione]",100 to 1000
6,"O=C1CC([C@H]2O[C@@H](n3cnc4c(N5CCOCC5)ncnc43)[C@H](O)[C@@H]2O)CC(=O)C1=CNCCN1CCN(CCO)CC1 (stereo partly drawn) [Compound 114, 5-((2R, 3S, 4R, 5R)-3,4-dihydroxy-5-(6-morpholino-9H-purin-9-yl)tetrahydrofuran-2-yl)-2-(((2-(4-(2-hydroxyethyl)piperazin-1-yl)ethyl)amino)methylene)cyclohexane-1,3-dione]",100 to 1000
7,"O=C1CC(Cc2ccccc2)C(=O)/C1=C/NCCN1CCN(CCO)CC1 (stereo not shown) [Compound 115, 4-benzyl-2-(((2-(4-(2-hydroxyethyl)piperazin-1-yl)ethyl)amino)-methylene)cyclopentane-1,3-dione]",3 to 15
8,"CN(C)CCNC=C1C(=O)CC(c2ccccc2)CC1=O (stereo not shown) [Compound 119, 2-(((2-(dimethylamino)ethyl)amino)methylene)-5-phenylcyclo-hexane-1,3-dione]",< 3
9,"CCN(CC)CCNC=C1C(=O)CC(c2ccccc2)CC1=O (stereo not shown) [Compound 120, 2-(((2-(diethylamino)ethyl)amino)methylene)-5-phenylcyclo-hexane-1,3-dione]",< 3
10,"C[C@H](NC=C1C(=O)CC(c2ccccc2)CC1=O)C(=O)OCc1ccccc1 (stereo partly drawn) [Compound 122, benzyl ((2,6-dioxo-4-phenylcyclo-hexylidene)methyl)-L-alaninate]",100 to 1000
11,"O=C1CC(c2ccccc2)CC(=O)C1=CN[C@@H](Cc1ccccc1)C(=O)O (stereo partly shown) [Compound 123, ((2,6-dioxo-4-phenylcyclo-hexylidene)methyl) phenylalanine]",100 to 1000
12,"CCOC(=O)[C@H](Cc1ccccc1)NC=C1C(=O)CC(c2ccccc2)CC1=O (stereo partly shown) [Compound 124, (l)-ethyl ((2,6-dioxo-4-phenylcyclo-hexylidene)methyl) phenylalaninate]",100 to 1000
13,"O=C1CC(c2ccccc2)CC(=O)C1=CN[C@@H](Cc1c[nH]cn1)C(=O)O (stereo partly drawn) [Compound 126, ((2,6-dioxo-4-phenylcyclo-hexylidene)methyl)-L-histidine]",15 to 100
14,"COC(=O)CNC=C1C(=O)CC(c2ccccc2)CC1=O (stereo not shown) [Compound 129, methyl ((2,6-dioxo-4-phenylcyclo-hexylidene)methyl)glycinate]",15 to 100
15,"O=C(O)CCCNC=C1C(=O)CC(c2ccccc2)CC1=O (stereo not shown) [Compound 131, 4-(((2,6-dioxo-4-phenylcyclo-hexylidene)methyl)amino) butanoic acid]",15 to 100
16,"O=C1CC(c2ccccc2)CC(=O)C1=CNCCCCO (stereo not shown) [Compound 132, 2-(((4-hydroxybutyl)amino)methylene)-5-phenylcyclohexane-1,3-dione]",100 to 1000
17,"O=C1CC(c2ccccc2)CC(=O)C1=CNCCCCl (stereo not shown) [Compound 133, 2-(((3-chloropropyl)amino)methylene)-5-phenylcyclohexane-1,3-dione]",100 to 1000
18,"O=C1CC(c2ccccc2)CC(=O)C1=CNCCc1c[nH]c2ccccc12 (stereo not shown) [Compound 135, 2-(((2-(1H-indol-3-yl)ethyl)amino)methylene)-5-phenylcyclo-hexane-1,3-dione]",100 to 1000
19,"O=C1CC(c2ccccc2)CC(=O)C1=CNC1CCC(O)CC1 (stereo not shown) [Compound 136, 2-(((4-hydroxycyclohexyl)amino)methylene)-5-phenylcyclohexane-1,3-dione]",100 to 1000
20,"O=C1CC(c2ccccc2)CC(=O)C1=CNC1CCNCC1 (stereo not shown) [Compound 140, 5-phenyl-2-((piperidin-4-ylamino)methylene) cyclohexane-1,3-dione hydrochloride]",15 to 100
21,"CN1CCC(NC=C2C(=O)CC(c3ccccc3)CC2=O)CC1 (stereo not shown) [Compound 142, 2-(((1-methylpiperidin-4-yl)amino)methylene)-5-phenylcyclohexane-1,3-dione]",15 to 100
22,"COc1ccc(CNC=C2C(=O)CC(c3ccccc3)CC2=O)cc1 (stereo not shown) [Compound 145, 2-(((4-methoxybenzyl)amino)methylene)-5-phenylcyclo-hexane-1,3-dione]",100 to 1000
23,"O=C1CC(c2ccccc2)CC(=O)C1=CNc1nc(C(=O)O)cs1 (stereo not shown) [Compound 148, 2-(((2,6-dioxo-4-phenylcyclo-hexylidene)methyl)amino) thiazole-4-carboxylic acid]",< 3
24,"O=C1Oc2ccccc2C(=O)C1=CNCCN1CCN(CCO)CC1 [Compound 155, 3-(((2-(4-(2-hydroxyethyl)piperazin-1-yl)ethyl)amino)methylene) chromanone-2,4-dione]",15 to 100

# Continued, values first:
row,IC50 [µM],SMILES
1,15 to 100,"O=C1C(=CNCCN2CCN(CCO)CC2)C(=O)C(c2ccccc2)CC1Cc1ccccc1 (stereo not shown) [Compound 101, 4-benzyl-2-(((2-(4-(2-hydroxyethyl)piperazin-1-yl)ethyl)amino)methylene)-6-phenylcyclohexane-1,3-dione]"
2,15 to 100,"COc1ccc(CN2CC(=O)C(=CNCCN3CCN(CCO)CC3)C(=O)C2)cc1 [Compound 102, 4-(((2-(4-(2-hydroxyethyl)piperazin-1-yl)ethyl)amino)methylene)-1-(4-methoxybenzyl)piperidine-3,5-dione]"
3,15 to 100,"O=C1CN(C(=O)c2ccccc2)CC(=O)C1=CNCCN1CCN(CCO)CC1 [Compound 104, 1-benzoyl-4-(((2-(4-(2-hydroxyethyl)piperazin-1-yl)ethyl)amino)methylene)-piperidine-3,5-dione]"
4,100 to 1000,"O=C1CC(C(=O)N2CCOCC2)CC(=O)C1=CNCCN1CCN(CCO)CC1 (stereo not shown) [Compound 106, 2-(((2-(4-(2-hydroxyethyl)piperazin-1-yl)ethyl)amino)methylene)-5-(morpholine-4-carbonyl)cyclohexane-1,3-dione]"
5,15 to 100,"O=C1Nc2ccccc2C(=O)/C1=C/NCCN1CCN(CCO)CC1 [Compound 107, 3-(((2-(4-(2-hydroxyethyl)piperazin-1-yl)ethyl)amino)methylene)quinoline-2,4(1H,3H)-dione]"
6,100 to 1000,"O=C1CC(c2ccccc2)CC(=O)C1=C(NCCN1CCN(CCO)CC1)c1ccccc1 (stereo not shown) [Compound 110, 2-(((2-(4-(2-hydroxyethyl)piperazin-1-yl)ethyl)amino)(phenyl)methylene)-5-phenylcyclohexane-1,3-dione]"
7,15 to 100,"O=C(CO)C1C(=O)CC(c2ccccc2)CC1=O (stereo not shown) [Compound 112, 2-(hydroacetyl)-5-pheyl-cyclohexane-1,3-dione]"
8,< 3,"CC1C(=O)C(=CNCCN2CCN(CCO)CC2)C(=O)CC1c1ccccc1 (stereo not shown) [Compound 116, 2-(((2-(4-(2-hydroxyethyl)piperazin-1-yl)ethyl)amino)methylene)-4-methyl-5-phenylcyclohexane-1,3-dione]"
9,15 to 100,"C[C@H](NC=C1C(=O)CC(c2ccccc2)CC1=O)C(=O)O (stereo partly drawn) [Compound 121, ((2,6-dioxo-4-phenylcyclo-hexylidene)methyl)-L-alanine]"
10,100 to 1000,"O=C1CC(c2ccccc2)CC(=O)C1=CN[C@@H](Cc1ccccc1)C(=O)OCc1ccccc1 (stereo partly drawn) [Compound 125, benzyl ((2,6-dioxo-4-phenylcyclo-hexylidene)methyl)-L-phenylalaninate]"
11,15 to 100,"COC(=O)C(CCSC)NC=C1C(=O)CC(c2ccccc2)CC1=O (stereo not shown) [Compound 127, methyl ((2,6-dioxo-4-phenylcyclo-hexylidene)methyl) methioninate]"
12,100 to 1000,"COCCNC=C1C(=O)CC(c2ccccc2)CC1=O (stereo not shown) [Compound 128, 2-(((2-methoxyethyl)amino)methylene)-5-phenylcyclohexane-1,3-dione]"
13,100 to 1000,"O=C1CC(c2ccccc2)CC(=O)C1=CNCCOCCO (stereo not shown) [Compound 134, 2-(((2-(2-hydroxyethoxy)ethyl)amino)methylene)-5-phenylcyclohexane-1,3-dione]"
14,3 to 15,"O=C1CC(c2ccccc2)CC(=O)C1=CNC1CCCNC1 (stereo not shown) [Compound 141, 5-phenyl-2-((piperidin-3-ylamino)methylene) cyclohexane-1,3-dione hydrochloride]"
15,15 to 100,"C=CCNC=C1C(=O)CC(c2ccccc2)CC1=O (stereo not shown) [Compound 143, 2-((allylamino)methylene)-5-phenylcyclo-hexane-1,3-dione]"
16,15 to 100,"COc1ccc(NC=C2C(=O)CC(c3ccccc3)CC2=O)cn1 (stereo not shown) [Compound 147, 2-(((6-methoxypyridin-3-yl)amino)methylene)-5-phenylcyclo-hexane-1,3-dione]"
17,< 3,"O=C1CC(c2ccccc2)CC(=O)C1=CNc1ncc([N+](=O)[O-])s1 (stereo not shown) [Compound 150, 2-(((5-nitrothiazol-2-yl)amino)methylene)-5-phenylcyclohexane-1,3-dione]"
18,3 to 15,"O=C1Oc2ccc(-c3ccccc3)cc2C(=O)C1=CNCCN1CCN(CCO)CC1 [Compound 156, 3-(((2-(4-(2-hydroxyethyl)piperazin-1-yl)ethyl)amino)methylene)-6-phenylchromane-2,4-dione]"
